The source of these data is patent US12128016B2, “Vanin-1 inhibitor” (EDUCATIONAL FOUNDATION OF OSAKA MEDICAL AND PHARMACEUTICAL …, priority 2021, dated 2024).

Assay [1] concerns the target T1, Vanin-1 (Homo sapiens, UniProt O95497).
T1 construct: For use as human serum, “normal human serum” was purchased from KOHJIN BIO (product number: 12181211); tissue KOHJIN BIO 12181211; host or cells: normal human serum
T1 sequence (O95497 22-491): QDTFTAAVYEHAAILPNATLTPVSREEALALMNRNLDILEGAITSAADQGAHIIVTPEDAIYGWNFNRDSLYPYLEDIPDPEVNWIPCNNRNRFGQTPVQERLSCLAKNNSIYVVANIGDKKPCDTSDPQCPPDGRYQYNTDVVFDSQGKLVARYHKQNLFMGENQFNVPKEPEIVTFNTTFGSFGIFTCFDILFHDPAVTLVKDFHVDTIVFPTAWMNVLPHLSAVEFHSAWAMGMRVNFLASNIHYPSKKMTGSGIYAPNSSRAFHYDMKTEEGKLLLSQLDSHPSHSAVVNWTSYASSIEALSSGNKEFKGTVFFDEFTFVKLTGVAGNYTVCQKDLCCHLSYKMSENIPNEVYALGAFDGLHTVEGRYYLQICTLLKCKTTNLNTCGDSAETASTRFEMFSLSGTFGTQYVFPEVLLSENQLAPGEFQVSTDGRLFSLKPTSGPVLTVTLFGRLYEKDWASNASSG
Nature of the assay: In vitro measurement of Vanin-1 inhibitory activity, screening using human serum with Pantothenate-AMC substrate. Type of assay: biochemical. To be noted: for IC50: 37° C., 30 minutes incubation, Pantothenate-AMC; for Vanin-1 inhibitory activity relative to that of Comparative Example 1: ratio to Comparative Example 1. How it is done: The pantotheine ketone derivatives obtained in Examples 1 to 5 and Comparative Examples 1 to 9 were used as a Vanin-1 inhibitor to measure Vanin-1 inhibitory activity in vitro as follows.
A 9 g/package phosphate buffer powder (1/15 molL^−1=66 mM, Wako Pure Chemical) was dissolved in 1 L of distilled water to produce an assay buffer. Pantothenate-AMC serving as a substrate was synthesized according to protocols as described in Analytical Biochemistry 2010; 399: 284-292. For use as human serum, “normal human serum” was purchased from KOHJIN BIO (product number: 12181211).
Vanin-1 inhibitory activity was measured in accordance with the following steps 1 to 8 of: • 1. introducing 79 μL of assay buffer in a 96-well black plate, • 2. adding 10 μL of human serum to the wells containing the assay buffer, • 3. adding 1 μL of each Vanin-1 inhibitor (10^−7 M to 10^−2 M in DMSO) or 1 μL of DMSO to the wells from the step [2.], • 4. adding 10 μL of 1 mM Pantothenate-AMC to the wells from the step [3.], • 5. measuring at Ex=390 nm and Ex=465 nm before incubation, • 6. incubating at 37° C. for 30 minutes, • 7. measuring at Ex=390 nm and Ex=465 nm, • 8. subtracting fluorescence after 0 minute incubation, from fluorescence after 30 minutes incubation, to express Vanin-1 inhibitory activity of each inhibitor in percent with respect to that of DMSO being 100%. (Results)

Assay [2] concerns Vanin-1. Kind of assay: In vivo measurement of Vanin-1 inhibitory activity in sera and kidney tissues using hamsters. Further details: species or system Syrian hamsters. The settings on record: hamster, 10 mg/kg subcutaneous injection; for Vanin-1 activity in kidney tissue extracts 1 hour after administration / Vanin-1 activity in kidney tissue extracts 4 hours after administration: kidney tissue extract; for Vanin-1 activity in kidney tissue extracts 1 hour after administration: 1 hour (FIG. 5b); for Vanin-1 activity in kidney tissue extracts 4 hours after administration: 4 hours (FIG. 5b); for Vanin-1 activity in sera 1 hour after administration / Vanin-1 activity in sera 4 hours after administration: serum; for Vanin-1 activity in sera 1 hour after administration: 1 hour (FIG. 5a); for Vanin-1 activity in sera 4 hours after administration: 4 hours (FIG. 5a). How it is done:
The pantotheine ketone derivatives obtained in Example 1 and Comparative Example 1 were used as a Vanin-1 inhibitor to measure Vanin-1 inhibitory activity in vivo as follows.
An assay buffer and substrate were the same as those used in the in vitro measurement of activity described above. Hamsters used were 6-week-old male Syrian hamsters purchased from Japan SLC.
The pantotheine ketone derivatives of Example 1 and Comparative Example 1 at a dose of 10 mg/kg were each administered by subcutaneous injection in the backs of different hamsters, and 1 hour and 4 hours after the administration, blood collection and kidney removal were performed under anesthesia. The blood and kidney of the normal hamsters were indicated as Normal. The blood was refrigerated overnight at 4° C. and then centrifuged at 3000 rpm for 20 minutes at 4° C., and the supernatant was used as serum. The kidney was homogenized in an assay buffer in an amount 10 times the tissue weight, and centrifuged at 8000 rpm for 30 minutes at 4° C., and the supernatant was used as a kidney tissue extract. Proteins in the kidney tissue were quantified by using a BCA protein assay (Thermo Fishers Scientific).
Vanin-1 inhibitory activity was measured in accordance with the following steps 1 to 7 of: • 1. introducing 80 μL of assay buffer in a 96-well black plate, • 2. adding 10 μL of serum or kidney tissue extract to the wells containing the assay buffer, • 3. adding 10 μL of 1 mM Pantothenate-AMC to the wells from the step [2.], • 4. measuring at Ex=390 nm and Ex=465 nm before incubation, • 5. incubating at 37° C. for 30 minutes, • 6. measuring at Ex=390 nm and Ex=465 nm, • 7. subtracting fluorescence after 0 minute incubation, from fluorescence value after 30 minutes incubation, and calculating enzyme unit (U) using as an index the amount of AMC produced per minute with respect to the fluorescence value of 40 μM AMC as a reference. The Vanin-1 activity in the kidney tissue extracts was further calculated to normalize by the protein concentration. (Results)

The test system of assay [3] is vascular intimal thickening after aorta transplantation. The settings on record: rat; 3 mg/mL in drinking water (Non-patent literature 2); cited from earlier work.

By IC50 is commonly meant the concentration needed to halve the response being measured. A higher IC50 goes with lower potency.

The compound `CC(C)(CO)[C@@H](O)C(=O)NCCC(=O)Cc1ccccc1` [Comparative Example 1, reference compound] had an IC50 against Vanin-1 [1] of 780 nM. In addition, in the assay with Vanin-1 [2], the “Vanin-1 activity in kidney tissue extracts 1 hour after administration” value is given as “same as the normal value”, the “Vanin-1 activity in kidney tissue extracts 4 hours after administration” value was “same as the normal value”, the “Vanin-1 activity in sera 1 hour after administration” value is reported as “suppressed” and the “Vanin-1 activity in sera 4 hours after administration” value is recorded as “returned to normal value”. In assay [3], the “Effect on vascular intimal thickening after aorta transplantation” value is given as “suppressive effect on vascular intimal thickening”.
As to `CC(C)(CO)[C@@H](O)C(=O)NCCC(=O)Cc1ccc2ccccc2c1` [Comparative Example 6], on Vanin-1 [1], the “Vanin-1 inhibitory activity in vitro (comparison in words, FIGS. 1 to 4)” value (“Vanin-1 inhibitory activity in vitro” for short) was “lower than that of Comparative Example 1”.
On the same count and under the same terms, to `CC(C)(CO)[C@@H](O)C(=O)NCCC(=O)Cc1cccc2ccccc12` [Comparative Example 7] belongs “lower than that of Comparative Example 1”; to `C/C(O)=C/C(=O)CCNC(=O)[C@H](O)C(C)(C)CO` [Comparative Example 8], “lower than that of Comparative Example 1”.
Take `C=C=CC(=O)CCNC(=O)[C@H](O)C(C)(C)CO` [Comparative Example 9]: the “Vanin-1 inhibitory activity in vitro” value on Vanin-1 [1] is recorded as “lower than that of Comparative Example 1”.
For `CC(C)(CO)[C@@H](O)C(=O)NCCC(=O)Cc1ccc(OC(F)(F)F)cc1` [Example 1, (R)-2,4-dihydroxy-3,3-dimethyl-N-[3-oxo-4-(4-trifluoromethoxyphenyl)butyl]butanamide], at Vanin-1 [1], inhibition was half-maximal at 35 nM (IC50); the “Vanin-1 inhibitory activity in vitro” value is listed as “very high Vanin-1 inhibitory activity”; the “Vanin-1 inhibitory activity relative to that of Comparative Example 1” value is listed as “about 20 times”. Moreover, in the assay with Vanin-1 [2], the “Vanin-1 activity in kidney tissue extracts 1 hour after administration” value is listed as “able to inhibit Vanin-1”, the “Vanin-1 activity in kidney tissue extracts 4 hours after administration” value is listed as “returned to the normal value”, the “Vanin-1 activity in sera 1 hour after administration” value is reported as “suppressed Vanin-1 activity lower than that of Comparative Example 1” and the “Vanin-1 activity in sera 4 hours after administration” value is recorded as “suppressed below the normal value”.
`CC(C)(CO)[C@@H](O)C(=O)NCCC(=O)Cc1ccc(F)cc1` [Example 2]: on Vanin-1 [1], the IC50 was determined as 120 nM; the “Vanin-1 inhibitory activity in vitro” value was “very high Vanin-1 inhibitory activity”; the “Vanin-1 inhibitory activity relative to that of Comparative Example 1” value is “about 6 times”.
